Measured values published in patent US11192900B2, “Substituted 1,6-dihydropyridinones and 1,2-dihydroisoquinolinones as bet inhibitors” (NUVATION BIO INC., priority 2018, dated 2021).
pIC50: −log10 of the molar value.

Tests used:
Assay type in all cases: cell-based
KG-1a = test: Cell viability in AML and DLBCL cell lines (Cell Titer-Glo); conditions: Homo sapiens, 72 hr
Description: (§1) A panel of AML and DLBCL cell lines was profiled for effects of compound 3 on cell viability. Cells were seeded at a count of 3000-8000 cells per well/40 μl in a 384-well plate and incubated at 37° C., 5% CO2 overnight. Cells were treated with test compounds at 10 concentrations within a desired concentration range (e.g. 0.5 nM-10 μM) for generation of dose response curves by preparing serial dilutions of the test compound in DMSO which were further diluted with culture medium and then added in a volume of […] to each well. Cells were cultured in the presence of inhibitors at various concentrations for 72 hr. The assay was terminated by addition of […] Cell Titer-Glo reagent (Promega, Madison, Wis.) to each well. Contents were mixed, the plate was incubated for 10 min at room temperature and luminescence was measured. The IC50 value of each test compound was calculated with XLFit curve fitting software.

KOPN-8 = test: as above; conditions: Homo sapiens; KOPN-8, Cell Titer-Glo, 72 hr
Description: as §1

NOMO-1 = test: as above; conditions: Homo sapiens; NOMO-1, Cell Titer-Glo, 72 hr
Description: as §1

OCI-AML3 = test: as above; conditions: Homo sapiens, OCI-AML-3, 72 hr
Description: as §1

RS4; 11 = test: as above; conditions: Homo sapiens, 11, Cell Titer-Glo, 72 hr
Description: as §1

SU-DHL4 = test: as above; conditions: Homo sapiens, SU-DHL-4, 72 hr
Description: as §1

SU-DHL6 = test: as above; conditions: Homo sapiens, SU-DHL-6, 72 hr
Description: as §1

WSU-DLCL2 = test: as above; conditions: Homo sapiens, WSUDLCL2, 72 hr
Description: as §1

[1] = system: MV-4-11 human acute myeloid leukemia cell line; test: Second cell viability assay in MV-4-11 (Cell Titer-Glo); conditions: Homo sapiens; MV4-11, Cell Titer-Glo, 72 hrs; read-out: Cell Viability IC50 in MV4-11 cells
How it was run: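 MV-4-11 cells seeded at 15000 per well, rested 1 h, then treated with 8 concentrations (e.g. 5 nM–10 µM) for 72 h at 37 °C, 5% CO2. Viability by Cell Titer-Glo luminescence; IC50 from sigmoidal variable-slope nonlinear regression.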

pIC50 (OCI-AML3): 7.30
pIC50 (RS4; 11): 6.89
pIC50 (SU-DHL4): 7.66
pIC50 (SU-DHL6): 7.33
pIC50 [1]: 7.55
SMILES: C=CS(=O)(=O)Nc1ccc(Oc2ccc(F)cc2F)c(-c2cc(NC)c(=O)n(C)c2)c1 [Compound 3, N-(4-(2,4-difluorophenoxy)-3-(1-methyl-5-(methylamino)-6-oxo-1,6-dihydropyridin-3-yl)phenyl)ethenesulfonamide]
pIC50 (KG-1a): 6.55
pIC50 (KOPN-8): 8.05
pIC50 (NOMO-1): 6.69
pIC50 (WSU-DLCL2): 7.08
